Assay results: patent US20090252778A1, “METHODS AND DEVICES FOR REDUCING TISSUE DAMAGE AFTER ISCHEMIC INJURY” (INNOVATIONAL HOLDINGS LLC., priority 2006, published 2009)

Assay: in vitro cumulative release from dual drug stent
Assay type: physicochemical
Details: insulin and Pimecrolimus eluting stent
Method: FIG. 6a is a graph showing the in vitro cumulative release of insulin over time from a dual drug stent. FIG. 6b is a graph showing the in vitro cumulative release of pimecrolimus over time from a dual drug stent. A stent for eluting insulin and Pimecrolimus was made substantially according to the description in A above. The stent was loaded with a base region, an insulin drug region, and a Pimecrolimus cap region. The base contained PLGA and/or PEVA; the drug contained insulin 250 μg total drug load (TDL) and PLGA; and the cap contained PEVA, PLGA/PLA-PCL and Pimecrolimus 300 μg TDL, and 6 deposits of PLGA/PLA-PCL. FIGS. 6A and 6B show the release profile of the insulin and Pimecrolimus eluting stent, respectively, over time. As shown in FIG. 6A at least about 50% of the insulin is released in the first 48 hours.

CC[C@@H]1/C=C(\C)C[C@H](C)C[C@H](OC)[C@H]2O[C@@](O)(C(=O)C(=O)N3CCCC[C@H]3C(=O)O[C@H](/C(C)=C/[C@@H]3CC[C@H](Cl)[C@H](OC)C3)[C@H](C)[C@@H](O)CC1=O)[C@H](C)C[C@@H]2OC [Pimecrolimus]
release profile of Pimecrolimus (in vitro cumulative release) (Pimecrolimus 300 μg TDL in cap region, FIG. 6B): high initial release rate followed by a slower prolonged release

insulin
insulin released (in vitro cumulative release) (insulin 250 μg TDL in PLGA, in the first 48 hours, FIG. 6A): at least 50%
